Test results from patent publication US11760984B2, “CRISPR protein inhibitors” (THE BROAD INSTITUTE, INC., priority 2017, dated 2023).

Tests used:
SpCas9 = SpCas9 (Streptococcus pyogenes serotype M1, UniProt Q99ZW2); assay: Cas9 nuclease activity in EGFP disruption assay (U2OS.eGFP.PEST cells); format: cell-based; set-up: host or cells: U2OS.eGFP-PEST; conditions: 10, 15, 20 μM, 24 h
Procedure: (§1) Cas9 Nuclease activity in EGFP disruption assay. Approximately 200,000 U2OS.eGFP-PEST cells were nucleofected with 400 ng of SpCas9 (Addgene Plasmid #43861) and 40 ng of sgRNA (pFYF1320 EGFP Site #1, Addgene Plasmid #47511) expressing plasmids along with a Td-tomato-encoding plasmid using the SE Cell Line 4D-Nucleofector™ X Kit (Lonza) according to the manufacturer's protocol. Approximately 20,000 transfected cells/well in 3 replicates were plated in a 96-well plate (Corning® 3904). Cells were allowed to grow in the indicated amount of compound or DMSO for 24 h post transfection. Cells were then fixed using 4% paraformaldehyde and imaged with the HCS NuclearMask™ Blue Stain (Life Technologies) as the nuclear counter-staining agent. Imaging was performed with an IXM 137204 ImageXpress Automated High Content Microscope (Molecular Devices) at 10× magnification under three excitation channels (blue, green and red) with 9 acquiring sites per well. Images were analyzed in the MetaXpress software and data were plotted using GraphPad Prism 6. The Z′-value was calculated following the formula: […]
Cas9 Nuclease activity in EGFP disruption assay. In some embodiments, a quantitative human cell-based reporter assay that enables rapid quantitation of targeted nuclease activities is used to characterize off-target cleavage of CRISPR protein-based RNA guided endonucleases. In this assay, the activities of nucleases targeted to a single integrated EGFP reporter gene can be quantified by assessing loss of fluorescence signal in human U2OS.EGFP cells caused by inactivating frameshift insertion/deletion (indel) mutations introduced by error prone non-homologous end-joining (NHEJ) repair of nuclease-induced double-stranded breaks (DSBs).
as §1, with “Approximately” for “Cas9 Nuclease activity in EGFP disruption assay. Approximately”

SpCas9:gRNA complex = target: T1, SpCas9:gRNA complex (Streptococcus pyogenes serotype M1, UniProt Q99ZW2); assay: Bio-Layer Interferometry (BLI) of biotinylated compound with SpCas9:gRNA complex; format: binding
T1 construct: His6 (N, cleaved yes); made in house; host or cells: E. coli BL21 Star (DE3)
T1 sequence (Q99ZW2 whole entry, one chain of several): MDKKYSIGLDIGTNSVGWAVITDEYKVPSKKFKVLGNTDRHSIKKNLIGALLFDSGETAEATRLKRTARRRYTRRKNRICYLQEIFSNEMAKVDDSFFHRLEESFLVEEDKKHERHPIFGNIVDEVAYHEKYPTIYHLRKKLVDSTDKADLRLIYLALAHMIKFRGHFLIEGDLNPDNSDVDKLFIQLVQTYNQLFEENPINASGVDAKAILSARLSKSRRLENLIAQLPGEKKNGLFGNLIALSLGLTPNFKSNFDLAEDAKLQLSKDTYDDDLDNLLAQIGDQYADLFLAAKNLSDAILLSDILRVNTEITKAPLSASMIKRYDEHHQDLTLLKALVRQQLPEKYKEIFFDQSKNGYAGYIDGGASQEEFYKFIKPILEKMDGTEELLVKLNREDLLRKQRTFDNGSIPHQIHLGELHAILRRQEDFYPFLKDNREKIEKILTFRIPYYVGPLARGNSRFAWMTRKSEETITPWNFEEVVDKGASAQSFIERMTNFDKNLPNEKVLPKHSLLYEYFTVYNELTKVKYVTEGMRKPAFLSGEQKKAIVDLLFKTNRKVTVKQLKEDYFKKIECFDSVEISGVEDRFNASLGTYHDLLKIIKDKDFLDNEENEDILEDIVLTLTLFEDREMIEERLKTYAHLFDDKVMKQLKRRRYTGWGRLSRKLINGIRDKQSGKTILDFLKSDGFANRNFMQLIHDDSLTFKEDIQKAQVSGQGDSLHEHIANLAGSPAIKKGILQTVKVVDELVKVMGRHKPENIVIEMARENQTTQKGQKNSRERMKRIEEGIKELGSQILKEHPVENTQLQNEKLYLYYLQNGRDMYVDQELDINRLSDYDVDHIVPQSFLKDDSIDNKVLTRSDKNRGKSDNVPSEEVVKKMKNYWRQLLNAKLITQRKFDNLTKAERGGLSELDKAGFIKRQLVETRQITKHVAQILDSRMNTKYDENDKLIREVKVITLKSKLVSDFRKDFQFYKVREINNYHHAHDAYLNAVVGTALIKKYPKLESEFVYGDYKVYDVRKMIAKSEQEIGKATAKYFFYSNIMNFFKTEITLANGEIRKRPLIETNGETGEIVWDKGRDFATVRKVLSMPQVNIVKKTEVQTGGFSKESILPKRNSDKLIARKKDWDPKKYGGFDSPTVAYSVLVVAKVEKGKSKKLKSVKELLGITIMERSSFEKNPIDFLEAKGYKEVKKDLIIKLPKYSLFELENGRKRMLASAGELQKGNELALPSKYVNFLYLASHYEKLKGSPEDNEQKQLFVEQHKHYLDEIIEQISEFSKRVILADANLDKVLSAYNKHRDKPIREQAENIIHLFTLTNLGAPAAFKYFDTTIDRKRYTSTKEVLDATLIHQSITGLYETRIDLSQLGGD
Procedure: Compound-Cas9 interaction in BLI. The experiments were performed in a 96-well format with 180 μL reaction volume using biotinylated compound BRD7087-Biotin and streptavidin sensors. 1 μM of the biotinylated compound was loaded onto the sensors for 180 s in 20 mM Tris buffer of pH 7.4, 100 mM KCl, 5 mM MgCl2, 1 mM DTT, 0.01% Tween®. The compound loaded sensors were then allowed to associate with the different concentration of SpCas9:gRNA complex (1-0.15 μM) for 300 s followed by dissociation in the reaction buffer. Reference sensor was loaded with compound and allowed to associate and dissociate in the reaction buffer alone. The response curves were fitted with a 2:1 stoichiometric model and a global fit steady-state analysis were performed using manufacturer inbuilt protocol. The experiment was performed in three replicates.
The competitive experiments were performed using Biotin-linker fragment. In this experiment, streptavidin sensors were pre-incubated with 10 μM of Biotin-linker before dipping into a solution of either 1 μM BRD7087-Biotin or reaction buffer alone. Sensors were then allowed to associate with different concentration of SpCas9:gRNA complex or buffer alone.
Compound-Cas9 interaction in BLL The experiments were performed in a 96-well format with 180 μL reaction volume using biotinylated compound BRD7087-Biotin and streptavidin sensors. […]

SpCas9, sequence (Q99ZW2 whole entry): as the sequence (Q99ZW2 whole entry, one chain of several) above

| SMILES | potency of stereoisomers in EGFP-disruption assay compared with the parent (3aR,4S,9bR) compound (SpCas9) | Kd (SpCas9:gRNA complex; 1 μM BRD7087-Biotin on streptavidin sensors, SpCas9:gRNA 1-0.15 μM, read-out: dissociation constant (2:1 compound to Cas9 binding isotherm)) [nM] | BLI response signal in competitive experiment (SpCas9:gRNA complex; excess (10×) of biotin to compound loading) |
| --- | --- | --- | --- |
| OC[C@H]1Nc2ccc(-c3cccc(F)c3)cc2[C@@H]2[C@H]1CCN2Cc1ccncc1 [BRD0750, ((3aS,4S,9bS)-8-(3-Fluorophenyl)-1-(pyridin-4-ylmethyl)-2,3,3a,4,5,9b-hexahydro-1H-pyrrolo[3,2-c]quinolin-4-yl)methanol] | less potent | – | – |
| OC[C@@H]1Nc2ccc(-c3cccc(F)c3)cc2[C@H]2[C@@H]1CCN2Cc1ccncc1 [BRD2161, ((3aR,4R,9bR)-8-(3-Fluorophenyl)-1-(pyridin-4-ylmethyl)-2,3,3a,4,5,9b-hexahydro-1H-pyrrolo[3,2-c]quinolin-4-yl)methanol] | less potent | – | – |
| OC[C@@H]1Nc2ccc(-c3cccc(F)c3)cc2[C@@H]2[C@H]1CCN2Cc1ccncc1 [BRD5039, ((3aS,4R,9bS)-8-(3-Fluorophenyl)-1-(pyridin-4-ylmethyl)-2,3,3a,4,5,9b-hexahydro-1H-pyrrolo[3,2-c]quinolin-4-yl)methanol] | equipotent as BRD7087 | – | – |
| O=C(CCCC[C@@H]1SC[C@@H]2NC(=O)N[C@@H]21)NCCOCCOCCOCCC(=O)Nc1cccc(-c2ccc3c(c2)[C@H]2[C@H](CCN2Cc2ccncc2)[C@@H](CO)N3)c1 [biotin-conjugate of BRD7087, N-(2-(2-(2-(3-((3-((3aR,4S,9bR)-4-(Hydroxymethyl)-1-(pyridin-4-ylmethyl)-2,3,3a,4,5,9b-hexahydro-1H-pyrrolo[3,2-c]quinolin-8-yl)phenyl)amino)-3-oxopropoxy)ethoxy)ethoxy)ethyl)-5-((3aS,4S,6aR)-2-oxohexahydro-1H-thieno[3,4-d]imidazol-4-yl)pentanamide] | – | ~160 | no substantial response signal |
